From patent publication US20250041429A1, “COMPOUND HAVING BTK PROTEIN DEGRADATION ACTIVITY, AND MEDICAL USES THEREOF” (UBIX THERAPEUTICS, INC., priority 2021, published 2025)

Target: T1, BTK protein (Homo sapiens, UniProt Q06187)
T1 construct: endogenous in cells; host or cells: TMD-8 cells
Experiment: Measurement of BTK protein degradation ability in TMD-8 cells (Western blotting)
Assay type: cell-based
Conditions: harvested after 24 hours; for BTK degradation (%) 1 nM: compound 1 nM; for BTK degradation (%) 10 nM: compound 10 nM; for BTK degradation (%) 100 nM: compound 100 nM
Summary of the method: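 BTK levels were measured by immunoblotting of equal-protein RIPA lysates, normalized to GAPDH or β-actin, with chemiluminescent or infrared detection. Lysates came from TMD-8 cells exposed to compound for 24 h at final concentrations of 0.1, 1, 10 μM or 0.0001–0.1 μM, against a DMSO control.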

T1 sequence (Q06187 whole entry): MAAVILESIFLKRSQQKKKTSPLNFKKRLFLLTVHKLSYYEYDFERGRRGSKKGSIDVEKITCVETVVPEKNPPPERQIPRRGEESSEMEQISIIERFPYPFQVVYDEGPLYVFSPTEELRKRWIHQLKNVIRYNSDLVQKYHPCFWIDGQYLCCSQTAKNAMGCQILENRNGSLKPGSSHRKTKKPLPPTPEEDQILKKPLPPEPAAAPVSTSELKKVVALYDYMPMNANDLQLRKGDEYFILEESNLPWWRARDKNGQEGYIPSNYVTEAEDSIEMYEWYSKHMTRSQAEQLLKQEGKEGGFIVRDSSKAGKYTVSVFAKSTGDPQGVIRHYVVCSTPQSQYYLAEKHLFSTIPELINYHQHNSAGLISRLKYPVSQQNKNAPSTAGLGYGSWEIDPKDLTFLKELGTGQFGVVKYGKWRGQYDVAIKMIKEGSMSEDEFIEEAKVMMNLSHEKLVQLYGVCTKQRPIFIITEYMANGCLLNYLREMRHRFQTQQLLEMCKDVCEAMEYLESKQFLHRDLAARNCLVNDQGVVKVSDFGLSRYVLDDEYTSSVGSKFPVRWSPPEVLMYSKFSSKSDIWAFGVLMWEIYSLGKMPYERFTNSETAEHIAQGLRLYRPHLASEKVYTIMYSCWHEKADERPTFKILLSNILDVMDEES

| BTK degradation (%) 1 nM | BTK degradation (%) 10 nM | BTK degradation (%) 100 nM | SMILES |
| --- | --- | --- | --- |
| 48.0% | 97.0% | 100.0% | Cc1cc(-c2ccnc(Nc3ccc(N4CCN(CC5CCN(Cc6cccc(NC7CCC(=O)NC7=O)c6)CC5)CC4)cc3)n2)ccc1CNC(=O)N1CC(OC(C)C)C1 (stereo not drawn) [Example 115, N-(4-(2-((4-(4-((1-(3-((2,6-dioxopiperidin-3-yl)amino)benzyl)piperidin-4-yl)methyl)piperazin-1-yl)phenyl)amino)pyrimidin-4-yl)-2-methylbenzyl)-3-isopropoxyazetidine-1-carboxamide] |
| 1.0% | 56.0% | 96.5% | Cc1cc(-c2ccnc(Nc3ccc(N4CCC(C(=O)N5CCC(c6cccc(NC7CCC(=O)NC7=O)c6)CC5)CC4)cc3)n2)ccc1CNC(=O)N1CC(OC(C)C)C1 (stereo not drawn) [Example 116, N-(4-(2-((4-(4-(4-(3-((2,6-dioxopiperidin-3-yl)amino)phenyl)piperidine-1-carbonyl)piperidin-1-yl)phenyl)amino)pyrimidin-4-yl)-2-methylbenzyl)-3-isopropoxyazetidine-1-carboxamide] |
| 24.0% | 87.5% | 99.0% | Cc1cc(-c2ccnc(Nc3ccc(N4CCC(C(=O)N5CCC(c6ccc(NC7CCC(=O)NC7=O)cc6)CC5)CC4)cc3)n2)ccc1CNC(=O)N1CC(OC(C)C)C1 (stereo not drawn) [Example 117, N-(4-(2-((4-(4-(4-(4-((2,6-dioxopiperidin-3-yl)amino)phenyl)piperidine-1-carbonyl)piperidin-1-yl)phenyl)amino)pyrimidin-4-yl)-2-methylbenzyl)-3-isopropoxyazetidine-1-carboxamide] |
| 15.0% | 68.0% | 97.5% | Cc1cc(-c2ccnc(Nc3ccc(N4CCC(C(=O)N5CCC(c6ccc(OC7CCC(=O)NC7=O)cc6)CC5)CC4)cc3)n2)ccc1CNC(=O)N1CC(OC(C)C)C1 (stereo not drawn) [Example 118, N-(4-(2-((4-(4-(4-(4-((2,6-dioxopiperidin-3-yl)oxy)phenyl)piperidine-1-carbonyl)piperidin-1-yl)phenyl)amino)pyrimidin-4-yl)-2-methylbenzyl)-3-isopropoxyazetidine-1-carboxamide] |
| 41.5% | 91.0% | 99.5% | Cc1cc(-c2ccnc(Nc3ccc(N4CCC(CN5CCC(c6ccc(OC7CCC(=O)NC7=O)cc6)CC5)CC4)cc3)n2)ccc1CNC(=O)N1CC(OC(C)C)C1 (stereo not drawn) [Example 119, N-(4-(2-((4-(4-((4-(4-((2,6-dioxopiperidin-3-yl)oxy)phenyl)piperidin-1-yl)methyl)piperidin-1-yl)phenyl)amino)pyrimidin-4-yl)-2-methylbenzyl)-3-isopropoxyazetidine-1-carboxamide] |
| 18.5% | 91.5% | 99.5% | Cc1cc(-c2ccnc(Nc3ccc(N4CCC(CN5CCN(c6cccc(NC7CCC(=O)NC7=O)c6)CC5)CC4)cc3)n2)ccc1CNC(=O)N1CC(OC(C)C)C1 (stereo not drawn) [Example 120, N-(4-(2-((4-(4-((4-(3-((2,6-dioxopiperidin-3-yl)amino)phenyl)piperazin-1-yl)methyl)piperidin-1-yl)phenyl)amino)pyrimidin-4-yl)-2-methylbenzyl)-3-isopropoxyazetidine-1-carboxamide] |
| 43.0% | 97.0% | 100.0% | Cc1cc(-c2ccnc(Nc3ccc(N4CCC(CN5CCN(c6ccc(NC7CCC(=O)NC7=O)cc6)CC5)CC4)cc3)n2)ccc1CNC(=O)N1CC(OC(C)C)C1 (stereo not drawn) [Example 121, N-(4-(2-((4-(4-((4-(4-((2,6-dioxopiperidin-3-yl)amino)phenyl)piperazin-1-yl)methyl)piperidin-1-yl)phenyl)amino)pyrimidin-4-yl)-2-methylbenzyl)-3-isopropoxyazetidine-1-carboxamide] |
| −9.0% | 63.0% | 98.5% | Cc1cc(-c2ccnc(Nc3ccc(N4CCC(CN5CCC(c6cccc(NC7CCC(=O)NC7=O)c6)CC5)CC4)cc3)n2)ccc1CNC(=O)N1CC(OC(C)C)C1 (stereo not drawn) [Example 122, N-(4-(2-((4-(4-((4-(3-((2,6-dioxopiperidin-3-yl)amino)phenyl)piperidin-1-yl)methyl)piperidin-1-yl)phenyl)amino)pyrimidin-4-yl)-2-methylbenzyl)-3-isopropoxyazetidine-1-carboxamide] |
| 17.5% | 92.5% | 100.0% | Cc1cc(-c2ccnc(Nc3ccc(N4CCC(CN5CCC(c6ccc(NC7CCC(=O)NC7=O)cc6)CC5)CC4)cc3)n2)ccc1CNC(=O)N1CC(OC(C)C)C1 (stereo not drawn) [Example 123, N-(4-(2-((4-(4-((4-(4-((2,6-dioxopiperidin-3-yl)amino)phenyl)piperidin-1-yl)methyl)piperidin-1-yl)phenyl)amino)pyrimidin-4-yl)-2-methylbenzyl)-3-isopropoxyazetidine-1-carboxamide] |
| −1.3% | 63.7% | 97.7% | Cc1cc(-c2ccnc(Nc3ccc(N4CCC(CN5CCC(c6ccc(OC7CCC(=O)NC7=O)cn6)CC5)CC4)cc3)n2)ccc1CNC(=O)N1CC(OC(C)C)C1 (stereo not drawn) [Example 124, N-(4-(2-((4-(4-((4-(5-((2,6-dioxopiperidin-3-yl)oxy)pyridin-2-yl)piperidin-1-yl)methyl)piperidin-1-yl)phenyl)amino)pyrimidin-4-yl)-2-methylbenzyl)-3-isopropoxyazetidine-1-carboxamide] |
| 14.7% | 85.0% | 99.3% | Cc1cc(-c2ccnc(Nc3ccc(N4CCC(CN5CCN(c6ccc(OC7CCC(=O)NC7=O)cn6)CC5)CC4)cc3)n2)ccc1CNC(=O)N1CC(OC(C)C)C1 (stereo not drawn) [Example 125, N-(4-(2-((4-(4-((4-(5-((2,6-dioxopiperidin-3-yl)oxy)pyridin-2-yl)piperazin-1-yl)methyl)piperidin-1-yl)phenyl)amino)pyrimidin-4-yl)-2-methylbenzyl)-3-isopropoxyazetidine-1-carboxamide] |
| 39.7% | 95.7% | 100.0% | Cc1cc(-c2ccnc(Nc3ccc(N4CCC(CN5CCC(c6ccc(NC7CCC(=O)NC7=O)cn6)CC5)CC4)cc3)n2)ccc1CNC(=O)N1CC(OC(C)C)C1 (stereo not drawn) [Example 126, N-(4-(2-((4-(4-((4-(5-((2,6-dioxopiperidin-3-yl)amino)pyridin-2-yl)piperidin-1-yl)methyl)piperidin-1-yl)phenyl)amino)pyrimidin-4-yl)-2-methylbenzyl)-3-isopropoxyazetidine-1-carboxamide] |
| 43.3% | 94.0% | 99.3% | Cc1cc(-c2ccnc(Nc3ccc(N4CCC(CN5CCN(c6ccc(NC7CCC(=O)NC7=O)cn6)CC5)CC4)cc3)n2)ccc1CNC(=O)N1CC(OC(C)C)C1 (stereo not drawn) [Example 127, N-(4-(2-((4-(4-((4-(5-((2,6-dioxopiperidin-3-yl)amino)pyridin-2-yl)piperazin-1-yl)methyl)piperidin-1-yl)phenyl)amino)pyrimidin-4-yl)-2-methylbenzyl)-3-isopropoxyazetidine-1-carboxamide] |
| 51.5% | 94.5% | 99.0% | Cc1cc(-c2ccnc(Nc3ccc(N4CCC(CN5CCC(c6ccc(NC7CCC(=O)NC7=O)cn6)CC5)CC4)cc3)n2)ccc1CNC(=O)c1cnn(C(C)C)c1 (stereo not drawn) [Example 128, N-(4-(2-((4-(4-((4-(5-((2,6-dioxopiperidin-3-yl)amino)pyridin-2-yl)piperidin-1-yl)methyl)piperidin-1-yl)phenyl)amino)pyrimidin-4-yl)-2-methylbenzyl)-1-isopropyl-1H-pyrazole-4-carboxamide] |
| 49.0% | 95.5% | 100.0% | Cc1cc(-c2ccnc(Nc3ccc(N4CCC(CN5CCN(c6ccc(NC7CCC(=O)NC7=O)cn6)CC5)CC4)cc3)n2)ccc1CNC(=O)c1cnn(C(C)C)c1 (stereo not drawn) [Example 129, N-(4-(2-((4-(4-((4-(5-((2,6-dioxopiperidin-3-yl)amino)pyridin-2-yl)piperazin-1-yl)methyl)piperidin-1-yl)phenyl)amino)pyrimidin-4-yl)-2-methylbenzyl)-1-isopropyl-1H-pyrazole-4-carboxamide] |
| 56.5% | 95.0% | 99.5% | Cc1cc(-c2ccnc(Nc3ccc(N4CCC(CN5CCC(c6ccc(NC7CCC(=O)NC7=O)cn6)CC5)CC4)cc3)n2)ccc1CNC(=O)c1cnn(C(C)(C)C)c1 (stereo not drawn) [Example 130, 1-(tert-butyl)-N-(4-(2-((4-(4-((4-(5-((2,6-dioxopiperidin-3-yl)amino)pyridin-2-yl)piperidin-1-yl)methyl)piperidin-1-yl)phenyl)amino)pyrimidin-4-yl)-2-methylbenzyl)-1H-pyrazole-4-carboxamide] |
| 59.5% | 96.0% | 100.0% | Cc1cc(-c2ccnc(Nc3ccc(N4CCC(CN5CCN(c6ccc(NC7CCC(=O)NC7=O)cn6)CC5)CC4)cc3)n2)ccc1CNC(=O)c1cnn(C(C)(C)C)c1 (stereo not drawn) [Example 131, 1-(tert-butyl)-N-(4-(2-((4-(4-((4-(5-((2,6-dioxopiperidin-3-yl)amino)pyridin-2-yl)piperazin-1-yl)methyl)piperidin-1-yl)phenyl)amino)pyrimidin-4-yl)-2-methylbenzyl)-1H-pyrazole-4-carboxamide] |
